According to patent US12558430B2, “Dual amylin and calcitonin receptor agonists and uses thereof” (Eli Lilly and Company, priority 2020, dated 2026):
Read-outs that look alike come from different tables or passages of the source. One block for each compound: values may come before it. Starred links: 1 amine or outer side, 2 acyl side, 3 side chain; linkers in the order of their positions; H or OH if unused. Non-standard residues stand in square brackets, D forms with d. Residues, ends and D or L forms follow the SMILES beside them. Groups on a side chain read outwards from the residue. *: point of attachment. C20 diacid = O=C(O)CCCCCCCCCCCCCCCCCCC(=O)*; γGlu = O=C(O)[C@H](CCC(=O)[*:2])N[*:1]; AEEA = NCCOCCOCC(=O)O; Aib = CC(C)(N)C(=O)O

Columns and labels:
human AMY1 receptor = human AMY1 receptor (Homo sapiens, UniProt O60894+P30988); test: hAMY1 cAMP functional assay (HTRF); type: cell-based
Chain of human AMY1 receptor (O60894 27-148, one chain of several): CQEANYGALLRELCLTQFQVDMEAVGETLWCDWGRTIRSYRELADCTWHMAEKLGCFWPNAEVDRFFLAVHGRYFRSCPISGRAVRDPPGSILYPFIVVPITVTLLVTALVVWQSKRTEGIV
Procedure: The AMY1 and CT receptors are GPCRs that are functionally coupled to Gαs proteins. Stimulation of these receptors results in an increased production of intracellular cAMP, which can be detected using standard in vitro technologies. Human AMY1 or CT receptors are stably expressed in human urinary bladder cells (UM-UC-3) cells under control of a pcDNA (CALCR) or pCMV piggybac (RAMP1) expression vector. AMY1 cells are cultured in MEM 1X (Corning) supplemented with 10% FBS, 1% antibiotic/antimycotic solution, 1 mM sodium pyruvate, 1X MEM NEAA, 1X GlutaMAX-I, 200 μg/mL hygromycin B, and 0.4 μg/mL puromycin. CT cells are cultured in the same medium except that it lacks the puromycin. Cultured cells are grown to 70% confluency, and then incubated overnight with fresh medium.
On the assay day, 10 μL of assay buffer (phenol red free MEM (Corning, cat #17-305-CV), 0.1% casein, 0.5 mM IBMX, 5 mM HEPES, pH 7.4) is dispensed into each well of white poly-D-lysine coated 384-well plates (Corning cat #354661). […]
The amount of intracellular cAMP is quantitated using HTRF technology (Homogeneous Time Resolved Fluorescence; Cisbio) as per vendor instructions. […] The HTRF signal is immediately detected using an Envision plate reader (Perkin-Elmer) to calculate the ratio of fluorescence at 665 to 620 nm. […]

human CT receptor = biological target: T1, human CT receptor (Homo sapiens, UniProt P30988); test: hCT cAMP functional assay (HTRF); type: cell-based
T1 sequence (P30988 25-474): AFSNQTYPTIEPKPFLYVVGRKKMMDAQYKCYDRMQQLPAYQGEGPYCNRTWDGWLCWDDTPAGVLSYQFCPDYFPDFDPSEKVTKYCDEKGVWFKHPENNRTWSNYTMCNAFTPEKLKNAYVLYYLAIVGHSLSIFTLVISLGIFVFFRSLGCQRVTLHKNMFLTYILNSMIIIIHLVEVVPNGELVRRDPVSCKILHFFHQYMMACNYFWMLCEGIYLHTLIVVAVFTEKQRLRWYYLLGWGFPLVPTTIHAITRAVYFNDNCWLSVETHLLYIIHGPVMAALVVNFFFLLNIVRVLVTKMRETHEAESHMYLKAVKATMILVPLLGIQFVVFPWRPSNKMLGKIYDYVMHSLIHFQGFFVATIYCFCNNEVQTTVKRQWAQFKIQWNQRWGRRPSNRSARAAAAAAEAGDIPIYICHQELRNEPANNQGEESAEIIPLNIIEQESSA

[1] = Monkey pharmacokinetics, single subcutaneous dose; type: in vivo; details: cynomolgus monkey, plasma, sc, 20 nmol/kg, single 20 nmol/kg SC
Procedure: (§1) Plasma concentration of Compound II is determined by a qualified Liquid Chromatography Mass Spectrometry (LC/MS) method at Q Squared Solutions BioSciences LLC, Ithaca, N.Y. Compound II and an analog as an internal standard are extracted from 100% species-specific plasma using protein precipitation followed by solid phase extraction. The intact mass of Compound II which includes peptide plus acyl chain is detected by a Q-Exactive Orbitrap™ mass spectrometer.
In a monkey pharmacokinetics study, male and female Cynomolgus monkeys are administered a single subcutaneous dose of 20 nmol/kg (0.084 mg/kg) of Compound II in Tris-mannitol buffer (pH 8.0) at a volume of 0.2 mL/kg. Blood is collected predose and at 1, 3, 6, 12, 24, 48, 72, 96, 120, 144, 168, 240, 336, 408, 504 hours postdose for pharmacokinetic characterization.

[2] = Rat pharmacokinetics, single subcutaneous dose; type: in vivo; details: male, Sprague Dawley, plasma, sc, 20 nmol/kg, single 20 nmol/kg SC
Procedure: as §1
In a rat pharmacokinetic study, male Sprague Dawley rats are administered a single subcutaneous dose of 20 nmol/kg (0.084 mg/kg) of Compound II in Tris-mannitol buffer (pH 8.0) at a volume of 0.2 mL/kg. Blood is collected at 1-, 3-, 6-, 12-, 24-, 48-, 72-, 96-, 120-, and 144-hours post-dose for pharmacokinetic characterization.

[3] = test system: Primary human dendritic cells
DIO male Long Evans rats = test: DIO rats: Compound II in combination with other incretin compounds; type: in vivo, rat; details: mean ± SEM; for Cumulative Food Intake: 14-day treatment period; for Body Weight Change: Day −1 to Day 14
Procedure: This study is conducted to investigate the effect of Compound II for diabetes and/or obesity conditions in DIO rats when administered in combination with other incretin compounds, including a GLP-1 agonist (Compound III), oxyntomodulin analog (Compound IV), and a triagonist of glucagon, GLP-1, and GIP (Compound V). Diet-induced obese (DIO) male Long Evans (Envigo) rats, maintained on a calorie rich diet since arrival at Lilly (TD95217; Teklad, Madison, Wis.), are used in the following studies. Animals are individually housed in a temperature-controlled (24° C.) facility with 12-hour light/dark cycle (lights on 2200) and free access to food (TD95217) and water.
The rats are randomized according to their body weight, so that each experimental group of animals would have similar body weight. The body weights range from 529 to 823 grams.
Each group contains five rats. Vehicle and Compound II (1 nmol/kg) are dissolved in vehicle (40 mM Tris-HCl pH8+0.02% PS80) and are administered by subcutaneous (SC) injection (1 mL/kg) to ad libitum fed DIO rats 30 to 90 minutes prior to the onset of the dark cycle every 3 days for 14 days. SC injections are made on Days 1, 4, 7, 10 and 13. Body weight and food intake are measured daily throughout the study. Absolute changes in body weight are calculated by subtracting the body weight of the same animal prior to the first injection of molecule.
At the end of the study, blood is collected to measure blood glucose and plasma insulin. Blood glucose is measured by AccuChek glucometers (Roche, Indianapolis, Ind.). Insulin is measured by ELISA (MSD, Rockville, Md.).
All data are presented as mean±SEM of 5 animals per group. Statistical analysis is performed using one-way ANOVA, followed by Tukey's multiple comparison test to compare treatment groups to vehicle group or each other. Significant differences are identified at p<0.05.

[4] = background statement; cited from earlier work

EC50 (human AMY1 receptor): 0.0494 ± 0.00514 nM
EC50 (human CT receptor): 0.0409 ± 0.0147 nM
AUC(0-inf) ([1]; both sexes, Mean): 47.5 µM·h
CL/F ([1]; both sexes, Mean): 0.42 mL/h/kg
Cmax ([1]; both sexes, Mean): 168 nM
Tmax ([1]; both sexes, Mean): 42 h
half-life ([1]; both sexes, Mean): 178 h
AUC(0-inf) ([1]; animal P0001): 50.4 µM·h
CL/F ([1]; animal P0001): 0.4 mL/h/kg
Cmax ([1]; animal P0001): 198 nM
Tmax ([1]; animal P0001): 12 h
half-life ([1]; animal P0001): 185 h
AUC(0-inf) ([1]; animal P0101): 44.7 µM·h
CL/F ([1]; animal P0101): 0.45 mL/h/kg
Cmax ([1]; animal P0101): 138 nM
Tmax ([1]; animal P0101): 72 h
half-life ([1]; animal P0101): 170 h
AUC(0-inf) ([2]; Mean): 8.59 µM·h
CL/F ([2]; Mean): 2.33 mL/h/kg
Cmax ([2]; Mean): 90 nM
Tmax ([2]; Mean): 24 h
half-life ([2]; Mean): 58 h
AUC(0-inf) ([2]; animal R0001): 8.41 µM·h
CL/F ([2]; animal R0001): 2.38 mL/h/kg
Cmax ([2]; animal R0001): 88 nM
Tmax ([2]; animal R0001): 48 h
half-life ([2]; animal R0001): 47 h
AUC(0-inf) ([2]; animal R0002): 8.7 µM·h
CL/F ([2]; animal R0002): 2.3 mL/h/kg
Cmax ([2]; animal R0002): 81 nM
Tmax ([2]; animal R0002): 12 h
half-life ([2]; animal R0002): 60 h
AUC(0-inf) ([2]; animal R0003): 8.65 µM·h
CL/F ([2]; animal R0003): 2.31 mL/h/kg
Cmax ([2]; animal R0003): 99 nM
Tmax ([2]; animal R0003): 12 h
half-life ([2]; animal R0003): 67 h
# of clusters [3]: 0
% Donors (displaying non-germline residues) [3]: 0%
immunogenicity risk (MAPPs) [3]: low level of immunogenicity risk
% Positive Donors (CD4+ T cells): 12.5%
CDI Range High (CD4+ T cells): 19.7
CDI Range Low (CD4+ T cells): 0.7
Median CDI (All donors) (CD4+ T cells): 1.0
Median CDI (Positive Donors) (CD4+ T cells): 19.7
Number of donors (positive/tested) (CD4+ T cells): 1/8
Compound: CC(=O)N[C@@H](C)C(=O)N[C@@H](CO)C(=O)N[C@@H](Cc1c[nH]cn1)C(=O)N[C@@H](CC(C)C)C(=O)N[C@@H](CO)C(=O)N[C@H](C(=O)N[C@@H](C)C(=O)N[C@H](C(=O)N[C@@H](CC(C)C)C(=O)NCC(=O)N[C@@H](CCCCNC(=O)COCCOCCNC(=O)COCCOCCNC(=O)CC[C@H](NC(=O)CCCCCCCCCCCCCCCCCCC(=O)O)C(=O)O)C(=O)N[C@@H](CC(C)C)C(=O)N[C@@H](CO)C(=O)NC(C)(C)C(=O)N[C@@H](CCC(=O)O)C(=O)N[C@@H](CC(C)C)C(=O)N[C@@H](Cc1c[nH]cn1)C(=O)N[C@@H](CCCCN)C(=O)N[C@@H](CC(C)C)C(=O)N[C@@H](CCC(=O)O)C(=O)N[C@@H](CC(=O)O)C(=O)N[C@@H](Cc1ccc(O)cc1)C(=O)N1CCC[C@H]1C(=O)N[C@@H](CCCNC(=N)N)C(=O)N[C@H](C(=O)N[C@@H](CC(=O)O)C(=O)N[C@H](C(=O)NCC(=O)N[C@@H](C)C(=O)N[C@@H](CCC(=O)O)C(=O)N[C@@H](CO)C(=O)N1CCC[C@H]1C(N)=O)C(C)C)[C@@H](C)O)C(C)C)[C@@H](C)O [Compound II] (Ac-ASHLSTAVLGK([AEEA-AEEA-γGlu-C20 diacid])LS[Aib]ELHKLEDYPRTDVGAESP-NH2)
immunogenicity risk (T cell proliferation) (CD4+ T cells): low level of immunogenicity risk

EC50 (human AMY1 receptor): 0.0493 ± 0.00804 nM
EC50 (human CT receptor): 0.0317 ± 0.0058 nM
Compound: CC(=O)N[C@@H](C)C(=O)N[C@@H](CO)C(=O)N[C@@H](Cc1c[nH]cn1)C(=O)N[C@@H](CC(C)C)C(=O)N[C@@H](CO)C(=O)N[C@H](C(=O)N[C@@H](C)C(=O)N[C@H](C(=O)N[C@@H](CC(C)C)C(=O)NCC(=O)N[C@@H](CCCCN)C(=O)N[C@@H](CC(C)C)C(=O)N[C@@H](CO)C(=O)NC(C)(C)C(=O)N[C@@H](CCC(=O)O)C(=O)N[C@@H](CC(C)C)C(=O)N[C@@H](Cc1c[nH]cn1)C(=O)N[C@@H](CCCCN)C(=O)N[C@@H](CC(C)C)C(=O)N[C@@H](CCC(=O)O)C(=O)N[C@@H](CC(=O)O)C(=O)N[C@@H](Cc1ccc(O)cc1)C(=O)N1CCC[C@H]1C(=O)N[C@@H](CCCNC(=N)N)C(=O)N[C@H](C(=O)N[C@@H](CC(=O)O)C(=O)N[C@H](C(=O)NCC(=O)N[C@@H](C)C(=O)N[C@@H](CCC(=O)O)C(=O)N[C@@H](CO)C(=O)N1CCC[C@H]1C(N)=O)C(C)C)[C@@H](C)O)C(C)C)[C@@H](C)O [Compound I] (Ac-ASHLSTAVLGKLS[Aib]ELHKLEDYPRTDVGAESP-NH2)

Compound: H-Aib-QGTFTSDYSKYLDEKKAK((2-[2-(2-Amino-ethoxy)-ethoxy]-acetyl)2-(γGlu)-CO-(CH2)18-CO2H)EFVEWLLEGGPSSG-NH2 (H-H[Aib]QGTFTSDYSKYLDEKKAK([AEEA-AEEA-γGlu-C20 diacid])EFVEWLLEGGPSSG-NH2) [Compound IV, oxyntomodulin analog]
Cumulative Food Intake (DIO male Long Evans rats; 10 nmol/kg SC every three days): 165.86 ± 7.45 g
Body Weight Change (DIO male Long Evans rats; 10 nmol/kg SC every three days): -50.24 ± 6.36 g

Compound: Salmon calcitonin
half-life [4]: less than two hours

Compound: Y-Aib-QGTFTSDYSI-αMeL-LDKK((2-[2-(2-Amino-ethoxy)-ethoxy]-acetyl)-(γGlu)-CO-(CH2)18-CO2H)AQ-Aib-AFIEYLLEGGPSSGAPPPS-NH2 (YXQGTFTSDYSIXLDKKAQXAFIEYLLEGGPSSGAPPPS; Aib, αMeL; lipidated Lys; C-terminal amide; SITE 2 X at position 2 is Aib; SITE 13 X at position 13 is alpha-methyl-Leu; MOD_RES 17 The Lys at position 17 is chemically modified by conjugation of the epsilon amino group of the Lys sidechain with 2-[2-(2-Amino-ethoxy)-ethoxy]-acetyl)-(gamma-Glu)-CO-(CH2)18-CO2H; SITE 20 X at position 20 is Aib; MOD_RES 39 C-terminus is amidated) [Compound V, triagonist of glucagon, GLP-1, and GIP]
Cumulative Food Intake (DIO male Long Evans rats; 3 nmol/kg SC every three days): 157.50 ± 10.63 g
Body Weight Change (DIO male Long Evans rats; 3 nmol/kg SC every three days): -43.28 ± 2.54 g
